# Laboratory results published in patent US6649355B2, “Lipoxygenase proteins and nucleic acids” (priority 1998, dated 2003).
# Tests used:
# [1] = biological target: T1, 15-Lox-2 (second type of human 15S-lipoxygenase) (Homo sapiens, UniProt O15296, Q656R); experiment: Lipoxygenase metabolism of 14C substrates by the new 15S-lipoxygenase expressed in HEK 293 cells, HPLC analysis; format: biochemical; settings: 2 mM added; [14C]arachidonic acid as substrate
# T1 construct: Initially, five full length clones were expressed in HEK 293 cells; expressed in transfected cells; host or cells: HEK 293 cells, transient transfection (pCDNA3 or pCR3); sonicated cells incubated with substrate
# T1 sequence (O15296 1-676 Q656R): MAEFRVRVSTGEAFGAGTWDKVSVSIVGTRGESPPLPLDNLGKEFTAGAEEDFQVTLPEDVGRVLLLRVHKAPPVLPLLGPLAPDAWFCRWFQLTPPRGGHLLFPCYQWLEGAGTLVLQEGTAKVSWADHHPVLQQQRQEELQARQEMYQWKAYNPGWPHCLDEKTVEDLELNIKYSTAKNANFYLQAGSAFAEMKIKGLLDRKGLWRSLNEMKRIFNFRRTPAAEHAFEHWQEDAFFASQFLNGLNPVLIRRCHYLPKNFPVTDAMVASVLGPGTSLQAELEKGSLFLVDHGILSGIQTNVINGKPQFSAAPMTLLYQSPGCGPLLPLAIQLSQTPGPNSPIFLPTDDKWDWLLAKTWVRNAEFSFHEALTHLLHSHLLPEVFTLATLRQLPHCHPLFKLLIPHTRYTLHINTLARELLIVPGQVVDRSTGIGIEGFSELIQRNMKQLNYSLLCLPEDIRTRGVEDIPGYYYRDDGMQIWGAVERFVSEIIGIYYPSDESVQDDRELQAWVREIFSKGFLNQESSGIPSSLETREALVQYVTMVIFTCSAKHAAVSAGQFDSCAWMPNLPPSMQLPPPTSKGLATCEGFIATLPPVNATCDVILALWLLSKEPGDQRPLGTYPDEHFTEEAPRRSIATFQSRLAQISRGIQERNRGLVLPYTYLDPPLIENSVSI
# From the text: (§1) The PCR products corresponding to the open reading frame of the cDNA were subcloned into the pCDNA3 vector (Invitrogen), or in some experiments ligated directly into pCR3 (Invitrogen), and expressed by transient transfection in human embryonic kidney (HEK) 293 cells as described (Funk et al. (1996) J. Biol. Chem. 271, 23338-23344).
# [2] = biological target: T2, mouse 8S-lipoxygenase (8-Lox) (Mus musculus, UniProt O35936); format: biochemical
# T2 sequence (O35936 1-677): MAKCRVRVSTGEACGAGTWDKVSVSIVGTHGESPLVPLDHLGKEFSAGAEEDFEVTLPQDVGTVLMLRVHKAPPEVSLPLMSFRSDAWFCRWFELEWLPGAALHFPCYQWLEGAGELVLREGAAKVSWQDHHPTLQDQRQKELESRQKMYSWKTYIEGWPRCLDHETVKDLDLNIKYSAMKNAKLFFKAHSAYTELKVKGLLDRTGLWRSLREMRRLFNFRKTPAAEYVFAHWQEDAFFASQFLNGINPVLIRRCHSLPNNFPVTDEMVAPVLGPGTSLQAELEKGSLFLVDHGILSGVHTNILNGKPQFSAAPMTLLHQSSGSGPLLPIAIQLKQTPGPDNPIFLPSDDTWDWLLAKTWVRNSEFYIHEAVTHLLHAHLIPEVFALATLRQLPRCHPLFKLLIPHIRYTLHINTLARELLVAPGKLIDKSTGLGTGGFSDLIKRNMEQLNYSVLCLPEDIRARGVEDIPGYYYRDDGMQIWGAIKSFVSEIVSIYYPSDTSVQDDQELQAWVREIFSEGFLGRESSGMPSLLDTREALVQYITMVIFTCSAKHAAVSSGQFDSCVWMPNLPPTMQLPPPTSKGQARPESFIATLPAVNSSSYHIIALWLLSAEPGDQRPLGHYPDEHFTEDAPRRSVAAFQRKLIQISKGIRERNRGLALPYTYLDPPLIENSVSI
# [3] = biological target: T3, blood cell 15S-lipoxygenase (15-Lox-1) (Homo sapiens, UniProt P16050); experiment: Lipoxygenase metabolism of 14C substrates by the blood cell 15S-lipoxygenase analysed in the same experiments; format: biochemical; settings: applicants' experiments
# T3 construct: expressed in transfected cells
# T3 sequence (P16050 1-662): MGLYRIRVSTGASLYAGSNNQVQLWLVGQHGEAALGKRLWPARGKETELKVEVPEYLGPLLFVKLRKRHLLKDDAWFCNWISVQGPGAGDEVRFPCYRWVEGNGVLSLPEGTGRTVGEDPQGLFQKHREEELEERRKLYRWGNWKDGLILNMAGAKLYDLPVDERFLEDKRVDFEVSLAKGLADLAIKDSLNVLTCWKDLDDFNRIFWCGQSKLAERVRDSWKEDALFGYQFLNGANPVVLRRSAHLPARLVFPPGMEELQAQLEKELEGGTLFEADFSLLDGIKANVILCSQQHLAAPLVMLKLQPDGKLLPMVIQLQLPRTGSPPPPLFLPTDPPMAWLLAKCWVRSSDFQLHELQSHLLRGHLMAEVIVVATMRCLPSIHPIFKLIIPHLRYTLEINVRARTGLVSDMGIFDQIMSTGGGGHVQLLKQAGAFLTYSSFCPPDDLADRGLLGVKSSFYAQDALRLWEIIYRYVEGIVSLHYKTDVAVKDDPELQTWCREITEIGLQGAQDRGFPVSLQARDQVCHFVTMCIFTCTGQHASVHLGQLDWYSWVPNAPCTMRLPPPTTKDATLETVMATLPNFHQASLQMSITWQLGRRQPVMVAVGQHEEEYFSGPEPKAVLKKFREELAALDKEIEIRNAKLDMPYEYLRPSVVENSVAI
# From the text: as §1
# [4] = system: peroxisome proliferator-activated receptor, PPAR-a; settings: cited from earlier work
# [5] = system: 8S-lipoxygenase expression in mouse skin; experiment: Effect of topical phorbol ester on 8S-lipoxygenase expression in mouse skin (activity assay, Northern, Western, immunohistochemistry); format: in vivo; settings: for induction of 8S-lipoxygenase in skin: black Swiss mixed breed (outbred) pups, dorsal skin, topical
# Procedure: FIG. 9A: Normal-phase HPLC analysis of 8S-lipoxygenase activity in homogenates of back skin of 7-8-day-old black Swiss pups following 24 hr treatment with vehicle (acetone) or phorbol ester ([…]).
# Phorbol ester (PMA, 10 nmol) dissolved in […] of acetone was applied topically onto dorsal skin of 6-7-day-old mice. At 21-24 h after PMA-treatment, the mice were euthanized, and epidermis was prepared from the frozen dorsal skin as previously described (Hughes et al. (1991) Biochim. Biophys. Acta 1081:347-354). The frozen epidermis was dropped into guanidinium thiocyanate solution, the lysis buffer from the RNeasy RNA extraction kit (QIAGEN). After a brief sonication using an ultrasonic probe (2 sec, twice), total RNA was extracted according to the manufacturer's instructions. Approximately […] of total RNA was recovered in […] of water. Twenty microliter aliquots were used in […] reactions for first strand cDNA synthesis using an oligo-dT-adaptor primer (Brash et al. (1996) J. Biol. Chem. 271:20949-20957). One microliter aliquots of CDNA were used directly in PCR reactions.
# Poly(A)+RNA was prepared from PMA- or acetone-treated frozen dorsal skin using TRI REAGENT® (Molecular Research Center, Inc.) and Oligotex™ (Qiagen) according to the manufacturers' instructions. The poly(A)^+ RNA was electrophoresed in 1% agarose/formaldehyde gel and blotted to a Hybond-H^+ nylon membrane (Amersham). The membrane was hybridized with ^32P-labeled DNA probe (complementary with a 0.6-kb EcoRV/BamHI fragment of mouse epidermal 8S-lipoxygenase) prepared using the Multiprime DNA labeling kit and Rapid-hybridization buffer (Amersham), and then washed according to the manufacturer's specifications. Blots were exposed to Fuji x-ray film at −80° C. Mouse cyclophilin cDNA was used as a house-keeping gene to access loading of RNA.
# After quantitation by Bradford assay (Bio-Rad), protein was separated by SDS polyacrylamide gel electrophoresis (SDS-PAGE) and then transferred electrophoretically to Hybond ECL nitrocellulose membranes (Amersham). These were probed using a rabbit polyclonal antibody raised against the human 15-Lox-2. This antibody recognises 15-Lox-2 and the mouse 8S-lipoxygenase, but not the human reticulocyte type of 15S-lipoxygenase, as more fully described below. Donkey anti-rabbit Ig linked with horseradish peroxidase (Amersham) was the secondary antibody. Specifically bound protein was detected by chemiluminescence using the ECL Western blotting detection reagents (Amersham).
# The dorsal and tail skin of six to seven (6-7)-day-old mice were treated with acetone or PMA (10 nmol for dorsal skin, 2 nmol for tail skin). After 24 h, the animals were euthanized and the dorsal and tail skin were washed with soap and then rinsed thoroughly with water. […]
smiles,measurement,setting,value
Nc1ncnc2c1ncn2[C@@H]1O[C@H](COP(=O)(O)OP(=O)(O)OP(=O)(O)O)[C@@H](O)[C@H]1O [ATP],effect of addition to the incubation media on enzymatic activity,[1],no significant effect
CCCCC/C=C\C/C=C\CCCCCCCC(=O)O [linoleic acid],product formed from the substrate,[2],exclusively to 9S-HODE
same,extent of metabolism compared with arachidonic acid,[3],metabolized more extensively than arachidonic acid
[Ca+2] [calcium],effect of addition to the incubation media on enzymatic activity,[1],no significant effect
CCCCC/C=C\C/C=C\C=C\[C@@H](O)C/C=C\CCCC(=O)O [8S-HETE],activity at PPAR-a,[4],strong activator
"CCCCCCCCCCCCCC(=O)O[C@@H]1[C@@H](C)[C@@]2(O)[C@@H](C=C(CO)C[C@]3(O)C(=O)C(C)=C[C@@H]23)[C@@H]2C(C)(C)[C@]12OC(C)=O [PMA, Phorbol-12-myristate-13-acetate]",induction of 8S-lipoxygenase activity in skin,"[5]; Sencar strain, 6-10-day-old pups, high constitutive activity",little extra induction
same,induction of 8S-lipoxygenase in skin,[5]; 24 h,strongly induced
same,induction of 8S-lipoxygenase in skin,"[5]; 24 h, listed as phorbol ester",strong induction
same,histological response of skin (epidermis),"[5]; black Swiss, dorsal and tail skin, topical in acetone, 24 h",marked hyperproliferative response
CCCCC/C=C\C/C=C\C/C=C\C/C=C\CCCC(=O)O [arachidonic acid],added arachidonic acid converted to 8S-HPETE,[2],30-40%
same,product formed from the substrate,[2],exclusively to 8S-hydroperoxyeicosatetraenoic acid
